Test results taken from patent publication US11339130B1 (Blade Therapeutics, Inc., priority 2016, dated 2022).

Assays:
Human Calpain 1/NS1 = molecular target: T1, Human Calpain 1/NS1 (Homo sapiens, UniProt P07384); experiment: Calpain inhibition continuous fluorescence (FRET) assay, Human Calpain 1/NS1; assay type: biochemical; settings: read-out: Human Calpain 1/NS1 IC50
T1 sequence (P07384 1-714): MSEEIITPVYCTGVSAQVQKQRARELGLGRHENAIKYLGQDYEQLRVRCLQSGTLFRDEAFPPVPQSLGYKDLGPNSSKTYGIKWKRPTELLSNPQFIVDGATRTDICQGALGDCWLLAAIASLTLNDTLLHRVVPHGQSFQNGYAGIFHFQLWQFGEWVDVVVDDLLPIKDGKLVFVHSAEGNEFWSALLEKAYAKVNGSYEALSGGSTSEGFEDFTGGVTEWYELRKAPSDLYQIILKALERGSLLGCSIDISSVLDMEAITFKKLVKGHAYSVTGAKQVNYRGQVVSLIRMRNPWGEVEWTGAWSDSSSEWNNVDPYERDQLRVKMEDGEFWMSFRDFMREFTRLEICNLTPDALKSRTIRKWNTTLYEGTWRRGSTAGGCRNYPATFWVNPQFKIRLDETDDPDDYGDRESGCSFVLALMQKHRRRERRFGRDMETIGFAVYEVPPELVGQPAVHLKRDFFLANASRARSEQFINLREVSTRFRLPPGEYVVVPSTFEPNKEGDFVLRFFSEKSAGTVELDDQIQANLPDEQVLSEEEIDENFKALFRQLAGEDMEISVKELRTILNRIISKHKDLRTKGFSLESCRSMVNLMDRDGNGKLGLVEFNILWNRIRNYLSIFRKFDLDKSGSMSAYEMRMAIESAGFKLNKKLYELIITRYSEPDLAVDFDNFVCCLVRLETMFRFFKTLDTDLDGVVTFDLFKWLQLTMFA
T1 sequence (P04632 1-268 partner): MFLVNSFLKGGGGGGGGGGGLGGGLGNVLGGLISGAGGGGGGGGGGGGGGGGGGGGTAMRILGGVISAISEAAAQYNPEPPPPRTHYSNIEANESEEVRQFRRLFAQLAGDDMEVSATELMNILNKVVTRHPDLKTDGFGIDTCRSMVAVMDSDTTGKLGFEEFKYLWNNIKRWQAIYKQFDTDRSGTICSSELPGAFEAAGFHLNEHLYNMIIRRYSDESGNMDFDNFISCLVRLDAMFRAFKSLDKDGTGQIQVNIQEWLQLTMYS
Outline: (§1)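 Inhibitors were preincubated with calpain in 50 mM Tris pH 7.5, 100 mM NaCl, 1 mM DTT at 25C. Reactions were started with 5-FAM/QXL 520 FRET peptide substrate plus CaCl2 and read at 490/520 nm for 10 min. IC50s came from 4-parameter fits of slope rates (1-5 min).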

Human Calpain 2/NS1 = molecular target: T2, Human Calpain 2/NS1 (Homo sapiens, UniProt P17655); experiment: Calpain inhibition continuous fluorescence (FRET) assay, Human Calpain 2/NS1; assay type: biochemical; settings: read-out: Human Calpain 2/NS1 IC50
T2 sequence (P17655 1-700): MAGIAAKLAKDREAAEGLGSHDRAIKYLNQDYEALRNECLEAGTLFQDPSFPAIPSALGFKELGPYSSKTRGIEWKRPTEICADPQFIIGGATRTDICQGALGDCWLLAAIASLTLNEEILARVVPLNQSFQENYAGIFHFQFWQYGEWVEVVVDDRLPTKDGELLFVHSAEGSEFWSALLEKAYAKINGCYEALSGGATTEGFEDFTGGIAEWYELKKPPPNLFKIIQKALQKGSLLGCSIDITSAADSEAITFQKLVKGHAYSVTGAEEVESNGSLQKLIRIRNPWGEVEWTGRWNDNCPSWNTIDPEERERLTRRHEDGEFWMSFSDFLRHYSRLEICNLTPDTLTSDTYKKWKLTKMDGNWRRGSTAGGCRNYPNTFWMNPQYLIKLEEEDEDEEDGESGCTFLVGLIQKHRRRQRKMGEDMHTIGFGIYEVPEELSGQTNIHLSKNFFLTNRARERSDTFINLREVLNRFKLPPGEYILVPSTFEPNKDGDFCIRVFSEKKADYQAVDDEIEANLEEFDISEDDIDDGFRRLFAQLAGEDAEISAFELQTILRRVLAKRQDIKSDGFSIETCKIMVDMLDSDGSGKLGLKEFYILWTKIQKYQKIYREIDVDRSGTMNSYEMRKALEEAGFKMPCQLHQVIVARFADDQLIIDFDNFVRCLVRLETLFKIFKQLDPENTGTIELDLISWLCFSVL
T2 sequence (P04632 1-268 partner): T1 sequence (P04632 1-268 partner)
Outline: as §1

Human Calpain 9/NS1 = molecular target: T3, Human Calpain 9/NS1 (Homo sapiens, UniProt O14815); experiment: Calpain inhibition continuous fluorescence (FRET) assay, Human Calpain 9/NS1; assay type: biochemical; settings: read-out: Human Calpain 9/NS1 IC50
T3 sequence (O14815 1-690): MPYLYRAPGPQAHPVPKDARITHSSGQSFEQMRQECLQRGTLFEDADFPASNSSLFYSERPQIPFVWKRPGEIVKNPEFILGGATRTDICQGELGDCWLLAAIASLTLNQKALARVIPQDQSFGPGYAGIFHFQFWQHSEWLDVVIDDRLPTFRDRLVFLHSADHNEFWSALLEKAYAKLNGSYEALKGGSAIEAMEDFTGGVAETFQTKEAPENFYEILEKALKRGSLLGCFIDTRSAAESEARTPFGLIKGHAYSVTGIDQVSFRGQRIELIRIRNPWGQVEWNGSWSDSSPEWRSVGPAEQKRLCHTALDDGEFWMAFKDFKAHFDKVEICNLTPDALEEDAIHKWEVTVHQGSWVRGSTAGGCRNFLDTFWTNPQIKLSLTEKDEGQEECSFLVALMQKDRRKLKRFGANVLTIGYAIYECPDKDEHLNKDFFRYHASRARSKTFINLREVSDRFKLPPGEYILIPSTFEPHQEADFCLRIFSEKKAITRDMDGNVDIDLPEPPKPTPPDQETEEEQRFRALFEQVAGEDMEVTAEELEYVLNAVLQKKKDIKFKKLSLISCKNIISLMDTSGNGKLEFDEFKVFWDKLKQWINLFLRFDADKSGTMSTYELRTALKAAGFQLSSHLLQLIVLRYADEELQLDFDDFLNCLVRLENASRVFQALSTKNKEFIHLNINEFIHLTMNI
T3 sequence (P04632 1-268 partner): T1 sequence (P04632 1-268 partner)
Outline: as §1

[1] = tested on: Calpain activity in SH-SY5Y cells (SBDP-150); experiment: SH-SY5Y Spectrin western blot assay (SBDP-150 breakdown product, A23187-induced); assay type: cell-based; settings: Homo sapiens; SH-SY5Y cells, A23187-induced SBDP-150, western blot; read-out: SH-SY5Y Spectrin IC50
[2] = tested on: Calpain activity in SH-SY5Y cells; experiment: SH-SY5Y + AMC fluorescence assay (Suc-LLVY-AMC substrate); assay type: cell-based; settings: read-out: SH-SY5Y + AMC IC50

| Structure (SMILES) | IC50 (Human Calpain 1/NS1) | IC50 (Human Calpain 2/NS1) | IC50 (Human Calpain 9/NS1) | IC50 [1] | IC50 [2] |
| --- | --- | --- | --- | --- | --- |
| CCn1cc(C(=O)NC(Cc2ccccc2)C(=O)C(N)=O)c(-c2ccccc2F)n1 (stereo not shown) [Compound 469, N-(4-amino-3,4-dioxo-1-phenylbutan-2-yl)-1-ethyl-3-(2-fluorophenyl)-1H-pyrazole-4-carboxamide] | < 3 µM | < 3 µM | < 3 µM | 10 to 25 µM | < 10 µM |
| CCn1cc(C(=O)NC(Cc2ccccc2)C(=O)C(N)=O)c(-c2ccc(F)cc2)n1 (stereo not shown) [Compound 471, N-(4-amino-3,4-dioxo-1-phenylbutan-2-yl)-1-ethyl-3-(4-fluorophenyl)-1H-pyrazole-4-carboxamide] | < 3 µM | < 3 µM | < 3 µM | 10 to 25 µM | 10 to 25 µM |
| CC(C)n1cc(C(=O)NC(Cc2ccccc2)C(=O)C(N)=O)c(-c2ccccc2F)n1 (stereo not shown) [Compound 472, N-(4-amino-3,4-dioxo-1-phenylbutan-2-yl)-3-(2-fluorophenyl)-1-isopropyl-1H-pyrazole-4-carboxamide] | < 3 µM | < 3 µM | < 3 µM | 10 to 25 µM | < 10 µM |
| CC(C)n1cc(C(=O)NC(Cc2ccccc2)C(=O)C(N)=O)c(-c2cccc(F)c2)n1 (stereo not shown) [Compound 473, N-(4-amino-3,4-dioxo-1-phenylbutan-2-yl)-3-(3-fluorophenyl)-1-isopropyl-1H-pyrazole-4-carboxamide] | < 3 µM | < 3 µM | < 3 µM | 10 to 25 µM | 10 to 25 µM |
| CC(C)n1cc(C(=O)NC(Cc2ccccc2)C(=O)C(N)=O)c(-c2ccc(F)cc2)n1 (stereo not shown) [Compound 474, N-(4-amino-3,4-dioxo-1-phenylbutan-2-yl)-3-(4-fluorophenyl)-1-isopropyl-1H-pyrazole-4-carboxamide] | < 3 µM | < 3 µM | < 3 µM | 10 to 25 µM | 10 to 25 µM |
| Cc1nc(-c2ccccc2)c(C(=O)N[C@@H](Cc2ccccc2)C(=O)CF)o1 [Compound 475, (S)—N-(4-fluoro-3-oxo-1-phenylbutan-2-yl)-2-methyl-4-phenyloxazole-5-carboxamide] | 3 to 10 µM | < 3 µM | 3 to 10 µM | < 10 µM | > 25 µM |
| Cn1cc(C(=O)N[C@@H](Cc2ccccc2)C(=O)CF)c(-c2ccccc2)n1 [Compound 476, (S)—N-(4-fluoro-3-oxo-1-phenylbutan-2-yl)-1-methyl-3-phenyl-1H-pyrazole-4-carboxamide] | < 3 µM | < 3 µM | < 3 µM | 10 to 25 µM | > 25 µM |
| Cc1cc(C(=O)N[C@@H](Cc2ccccc2)C(=O)CF)n(-c2cnccn2)n1 [Compound 477, (S)—N-(4-fluoro-3-oxo-1-phenylbutan-2-yl)-3-methyl-1-(pyrazin-2-yl)-1H-pyrazole-5-carboxamide] | 3 to 10 µM | < 3 µM | 3 to 10 µM | 10 to 25 µM | > 25 µM |
| Cc1cc(C(=O)N[C@@H](Cc2ccccc2)C(=O)CF)n(-c2ccccn2)n1 [Compound 478, (S)—N-(4-fluoro-3-oxo-1-phenylbutan-2-yl)-3-methyl-1-(pyridin-2-yl)-1H-pyrazole-5-carboxamide] | < 3 µM | < 3 µM | 3 to 10 µM | > 25 µM | > 25 µM |
| Cc1cc(C(=O)N[C@@H](Cc2ccccc2)C(=O)CF)n(-c2ccccc2)n1 [Compound 479, (S)—N-(4-fluoro-3-oxo-1-phenylbutan-2-yl)-3-methyl-1-phenyl-1H-pyrazole-5-carboxamide] | < 3 µM | < 3 µM | < 3 µM | 10 to 25 µM | > 25 µM |
| Cn1cc(C(=O)NC(Cc2ccccc2)C(=O)C(N)=O)c(-c2cccc(F)c2F)n1 (stereo not shown) [Compound 480, N-(4-amino-3,4-dioxo-1-phenylbutan-2-yl)-3-(2,3-difluorophenyl)-1-methyl-1H-pyrazole-4-carboxamide] | < 3 µM | < 3 µM | < 3 µM | 10 to 25 µM | 10 to 25 µM |
